Measurements from the kinase profiling compilation of Christmann-Franck et al. (2016).

Tests used:
Test in all cases: radiometric filter-binding kinase assay, Kinase HotSpot
Details in all cases: compound 0.5 µM; ATP 10 µM
[1] = tested on: ARAF (human), P10398 [Y301D/Y302D]
DYRK1B (human) = DYRK1B (human) (UniProt Q9Y463)
LTK (human) = LTK (human) (UniProt P29376)
PRKCH (human) = PRKCH (human) (UniProt P24723)
STK33 (human) = STK33 (human) (UniProt Q9BYT3)
STK33 (human), sequence (Q9BYT3 whole entry, looked up): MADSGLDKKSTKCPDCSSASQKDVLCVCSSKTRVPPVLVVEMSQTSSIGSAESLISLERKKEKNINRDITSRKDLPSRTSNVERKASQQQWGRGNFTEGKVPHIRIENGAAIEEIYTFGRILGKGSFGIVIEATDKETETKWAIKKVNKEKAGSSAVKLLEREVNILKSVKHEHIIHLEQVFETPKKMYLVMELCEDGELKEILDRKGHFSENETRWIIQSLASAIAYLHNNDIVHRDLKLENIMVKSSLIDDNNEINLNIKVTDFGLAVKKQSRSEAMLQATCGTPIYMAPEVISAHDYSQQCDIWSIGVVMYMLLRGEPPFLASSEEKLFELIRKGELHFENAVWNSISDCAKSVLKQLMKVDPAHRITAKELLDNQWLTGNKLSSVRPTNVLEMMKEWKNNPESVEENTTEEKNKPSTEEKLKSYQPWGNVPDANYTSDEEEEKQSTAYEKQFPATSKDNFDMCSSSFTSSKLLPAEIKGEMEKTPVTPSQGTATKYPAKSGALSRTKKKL

ARAF (human), P10398 [Y301D/Y302D], sequence (P10398 whole entry Y301D/Y302D, looked up): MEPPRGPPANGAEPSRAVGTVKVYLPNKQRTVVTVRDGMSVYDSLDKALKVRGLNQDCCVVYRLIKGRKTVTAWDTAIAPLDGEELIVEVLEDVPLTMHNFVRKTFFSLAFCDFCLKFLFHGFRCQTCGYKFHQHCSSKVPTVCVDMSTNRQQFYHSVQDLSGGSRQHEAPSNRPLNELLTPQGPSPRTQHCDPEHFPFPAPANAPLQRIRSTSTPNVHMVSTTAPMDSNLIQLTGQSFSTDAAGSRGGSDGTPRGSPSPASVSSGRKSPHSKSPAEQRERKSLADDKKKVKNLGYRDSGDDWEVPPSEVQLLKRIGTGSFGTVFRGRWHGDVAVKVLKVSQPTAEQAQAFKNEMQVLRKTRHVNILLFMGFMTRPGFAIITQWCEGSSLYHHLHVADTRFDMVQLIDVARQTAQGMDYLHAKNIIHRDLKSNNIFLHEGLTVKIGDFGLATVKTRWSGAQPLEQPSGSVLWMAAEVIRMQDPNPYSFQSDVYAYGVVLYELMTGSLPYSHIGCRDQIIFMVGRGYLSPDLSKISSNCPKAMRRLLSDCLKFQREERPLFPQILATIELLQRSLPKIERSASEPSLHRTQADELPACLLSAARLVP
PRKCH (human), sequence (P24723 whole entry, looked up): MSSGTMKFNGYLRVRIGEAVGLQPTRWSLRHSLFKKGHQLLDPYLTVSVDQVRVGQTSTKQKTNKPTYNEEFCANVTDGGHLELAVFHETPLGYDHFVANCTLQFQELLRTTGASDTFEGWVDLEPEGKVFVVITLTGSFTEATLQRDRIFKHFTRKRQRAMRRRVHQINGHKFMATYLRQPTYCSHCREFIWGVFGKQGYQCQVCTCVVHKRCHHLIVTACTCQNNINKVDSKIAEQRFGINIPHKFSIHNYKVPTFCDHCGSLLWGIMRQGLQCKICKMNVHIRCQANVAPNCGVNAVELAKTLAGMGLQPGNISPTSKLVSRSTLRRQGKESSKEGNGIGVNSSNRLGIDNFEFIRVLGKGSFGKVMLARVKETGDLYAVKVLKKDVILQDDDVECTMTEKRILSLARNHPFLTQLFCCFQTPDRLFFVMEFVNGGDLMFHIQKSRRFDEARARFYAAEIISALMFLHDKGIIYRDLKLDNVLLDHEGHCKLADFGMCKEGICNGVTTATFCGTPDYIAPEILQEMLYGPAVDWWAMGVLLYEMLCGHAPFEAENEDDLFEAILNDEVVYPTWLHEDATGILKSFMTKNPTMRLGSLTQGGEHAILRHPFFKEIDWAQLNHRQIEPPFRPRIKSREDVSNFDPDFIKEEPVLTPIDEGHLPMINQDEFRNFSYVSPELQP
DYRK1B (human), sequence (Q9Y463 whole entry, looked up): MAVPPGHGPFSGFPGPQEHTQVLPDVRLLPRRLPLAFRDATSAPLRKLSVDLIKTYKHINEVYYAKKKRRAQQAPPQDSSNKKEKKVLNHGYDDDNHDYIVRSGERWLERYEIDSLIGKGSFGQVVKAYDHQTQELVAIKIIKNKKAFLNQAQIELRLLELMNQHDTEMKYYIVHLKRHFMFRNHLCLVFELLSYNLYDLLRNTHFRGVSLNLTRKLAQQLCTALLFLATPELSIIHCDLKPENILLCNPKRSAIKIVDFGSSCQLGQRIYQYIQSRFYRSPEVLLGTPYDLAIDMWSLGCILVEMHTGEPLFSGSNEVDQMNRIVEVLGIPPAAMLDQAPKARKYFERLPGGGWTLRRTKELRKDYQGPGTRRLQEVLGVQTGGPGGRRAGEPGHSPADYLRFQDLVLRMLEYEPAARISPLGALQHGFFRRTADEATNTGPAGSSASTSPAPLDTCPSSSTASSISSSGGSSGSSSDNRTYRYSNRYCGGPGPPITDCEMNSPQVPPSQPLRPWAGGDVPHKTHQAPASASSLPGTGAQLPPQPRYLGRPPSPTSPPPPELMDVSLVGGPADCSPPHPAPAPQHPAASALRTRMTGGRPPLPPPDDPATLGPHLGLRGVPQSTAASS
LTK (human), sequence (P29376 whole entry, looked up): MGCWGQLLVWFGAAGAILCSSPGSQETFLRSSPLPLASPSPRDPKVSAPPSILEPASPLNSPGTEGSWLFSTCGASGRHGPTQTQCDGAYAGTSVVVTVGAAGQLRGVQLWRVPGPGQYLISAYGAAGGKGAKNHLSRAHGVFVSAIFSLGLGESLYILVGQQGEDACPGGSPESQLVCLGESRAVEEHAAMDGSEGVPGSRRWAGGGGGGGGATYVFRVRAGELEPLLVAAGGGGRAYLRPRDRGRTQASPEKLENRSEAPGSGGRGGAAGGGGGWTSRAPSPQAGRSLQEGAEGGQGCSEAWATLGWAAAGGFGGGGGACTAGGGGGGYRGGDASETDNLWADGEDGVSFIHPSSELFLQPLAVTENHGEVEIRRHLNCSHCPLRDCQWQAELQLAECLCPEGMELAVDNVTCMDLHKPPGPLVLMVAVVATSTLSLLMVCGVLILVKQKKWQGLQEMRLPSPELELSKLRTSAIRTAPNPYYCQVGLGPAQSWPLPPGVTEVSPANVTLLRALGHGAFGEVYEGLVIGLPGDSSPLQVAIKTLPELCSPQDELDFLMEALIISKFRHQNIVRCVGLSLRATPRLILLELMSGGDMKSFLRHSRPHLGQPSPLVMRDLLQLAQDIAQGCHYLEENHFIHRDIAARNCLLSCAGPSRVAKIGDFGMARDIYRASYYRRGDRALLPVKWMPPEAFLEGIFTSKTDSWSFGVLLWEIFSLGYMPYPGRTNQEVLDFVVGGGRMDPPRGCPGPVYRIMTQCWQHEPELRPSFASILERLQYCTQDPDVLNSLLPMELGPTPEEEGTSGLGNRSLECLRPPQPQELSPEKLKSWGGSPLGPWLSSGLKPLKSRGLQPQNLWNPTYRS

Work on `COc1cc2ncnc(N3CCN(C(=O)Nc4ccc(Oc5ccccc5)cc4)CC3)c2cc1OC` yielded a residual activity [1] of 105%.
`CC#CC(=O)Nc1cc2c(Nc3ccc(F)c(Cl)c3)ncnc2cn1` showed a residual activity [1] of 74.1%.
Molecule `Cc1cc(Nc2nc(-c3ccccc3)nc3ccccc23)n[nH]1` has a residual activity [1] of 89.7%.
`COc1cc2c(Nc3ccc(Br)cc3F)ncnc2cc1OCC1CCN(C)CC1` was tested, and the residual activity [1] was 84%.
With `CO[C@@H]1[C@H](N(C)C(=O)c2ccccc2)C[C@H]2O[C@]1(C)n1c3ccccc3c3c4c(c5c6ccccc6n2c5c31)C(=O)NC4` the residual activity [1] was 122%.
`N#CCCc1ccc2c(c1)-c1[nH]c3ccc([N+](=O)[O-])cc3c1CC(=O)N2` gave a residual activity [1] of 94.5%.
Molecule `Nc1ncnc2c1cnn2-c1ccccc1` has a residual activity [1] of 99.3%.
`O=C1Nc2ccccc2/C1=C1\Nc2ccccc2\C1=N/O` showed a residual activity [1] of 100%.
`O=C1NC(=O)/C(=C\c2ccc3nccnc3c2)S1` showed a residual activity [1] of 103%.
In the case of `O=c1cc(N2CCOCC2)oc2c(-c3ccccc3)cccc12`, the residual activity [1] was 105%.
`Nc1nccc(-c2c(-c3ccc(F)cc3)ncn2C2CCNCC2)n1` showed a residual activity [1] of 93.1%.
`O=C(Nc1cccc(Nc2nccc(Nc3cccc(C(F)(F)F)c3)n2)c1)C1CC1` was tested, and the residual activity [1] was 90.2%.
Molecule `O=C1NC(=O)c2c1c1c3ccccc3[nH]c1n1cncc21` has a residual activity [1] of 93.8%.
With `O=c1[nH]c2ccccc2n1C1CCN(Cc2ccc(-c3nc4cc5[nH]cnc5cc4nc3-c3ccccc3)cc2)CC1` the residual activity [1] was 99.2%.
For `CCOC(=O)c1c(C)[nH]c(/C=C2\C(=O)Nc3ccccc32)c1C`, the residual activity [1] was 94.7%.
Work on `CC[n+]1c(/C=C/N(C)c2ccccc2)n(-c2ccccc2)c2ccc(-c3nc4ccccc4s3)cc21` yielded a residual activity [1] of 102%.
In the case of `CN(C)c1ccc(/C=C2\C(=O)Nc3ccccc32)cc1`, the residual activity [1] was 94.3%.
`CCc1nc(-c2ccc(OC)cc2)[nH]c1-c1ccncc1` was tested, and the residual activity [1] was 99.6%.
Work on `COc1ccc(COc2ccc(Cc3cnc(N)nc3N)cc2OC)cc1` yielded a residual activity [1] of 96.6%.
With `CS(=O)(=O)CCNCc1ccc(-c2ccc3ncnc(Nc4ccc(OCc5cccc(F)c5)c(Cl)c4)c3c2)o1` the residual activity [1] was 85%.
`COc1cc2ncnc(Nc3ccc(Oc4ccccc4)cc3)c2cc1OC` was tested, and the residual activity [1] was 73.3%.
For `N#Cc1c(NC(=O)c2cccc3ccccc23)sc2c1CCCC2`, the residual activity [1] was 104%.
With `COc1cc2c(N3CCN(C(=O)Nc4ccc(OC(C)C)cc4)CC3)ncnc2cc1OCCCN1CCCCC1` the residual activity [1] was 103%.
`Cn1sc(=O)n(Cc2ccccc2)c1=O` showed a residual activity [1] of 94.6%.
Work on `CCOc1cc2ncnc(Nc3cccc(Br)c3)c2cc1OCC` yielded a residual activity [1] of 105%.
In the case of `COc1cc(Nc2c(C#N)cnc3cc(OCCCN4CCN(C)CC4)c(OC)cc23)c(Cl)cc1Cl`, the residual activity [1] was 109%.
`N#CC(C#N)=C(N)/C(C#N)=C/c1ccc(O)cc1` was tested, and the residual activity [1] was 90.8%.
`O=C(c1cc2cc(O)ccc2[nH]1)c1cc2cc(O)ccc2[nH]1` was tested, and the residual activity [1] was 98.6%.
In the case of `CCCCc1c(-c2ccc(O)cc2)[nH]c2nccnc12`, the residual activity [1] was 92.6%.
In the case of `O=C(Nc1cccc(Nc2cc(Nc3cccc(C(F)(F)F)c3)ncn2)c1)C1CC1`, the residual activity [1] was 95.1%.
Work on `CCN(CC)CCNC(=O)c1c(C)[nH]c(/C=C2\C(=O)Nc3ccc(F)cc32)c1C` yielded a residual activity [1] of 124%.
`N#C/C(=C\c1ccc(O)c(O)c1)C(=O)NCc1ccccc1` showed a residual activity [1] of 95.2%.
Molecule `O=S(=O)(NCCNC/C=C/c1ccc(Br)cc1)c1cccc2cnccc12` has a residual activity [1] of 95.8%.
In the case of `O=C1C(Cl)=C(N2C(=O)CCC2=O)C(=O)c2ccccc21`, the residual activity [1] was 105%.
Molecule `Cc1ccc(Nc2nccc(N(C)c3ccc4c(C)n(C)nc4c3)n2)cc1S(N)(=O)=O` has a residual activity [1] of 76.5%.
`CC(C)[C@H](CO)Nc1nc(Nc2cc(N)cc(Cl)c2)c2ncn(C(C)C)c2n1` was tested, and the residual activity [1] was 82.4%.
Work on `COc1cc2ncc(-c3ccccc3)nc2cc1OC` yielded a residual activity [1] of 87.6%.
For `CC(C)N(CCC(=O)c1ccc2ccccc2c1)Cc1ccccc1`, the residual activity [1] was 104%.
`COc1cccc(-c2cc(=O)c3ccccc3o2)c1N` showed a residual activity [1] of 98.9%.
`Cc1[nH]c(/C=C2\C(=O)Nc3ccc(S(=O)(=O)N(C)c4cccc(Cl)c4)cc32)c(C)c1C(=O)N1CCN(C)CC1` was tested, and the residual activity [1] was 120%.
Work on `N#C/C(=C(/N)Sc1ccc(N)cc1)c1ccccc1C(F)(F)F` yielded a residual activity [1] of 98.8%.
`COc1ccc(OC)c2c(=S)c3ccccc3[nH]c12` was tested, and the residual activity [1] was 122%.
With `COc1ccc2c(c1)/C(=C/c1cnc[nH]1)C(O)=N2` the residual activity [1] was 111%.
`COc1cc2c(cc1OC)-c1[nH]nc(Nc3cccc(F)c3)c1C2` was tested, and the residual activity [1] was 98.9%.
Molecule `Cn1c2ccccc2c2c3c(c4c5ccccc5n(CCC#N)c4c21)CNC3=O` has a residual activity [1] of 103%.
Molecule `Nc1ncnc2c1c(-c1ccc(Oc3ccccc3)cc1)cn2C1CCCC1` has a residual activity [1] of 53%.
`CN(C)S(=O)(=O)c1ccc2c(c1)/C(=C/c1cc3c([nH]1)CCCC3)C(=O)N2` showed a residual activity [1] of 105%.
Work on `COc1ccc(CNC(=O)Nc2ncc([N+](=O)[O-])s2)cc1` yielded a residual activity [1] of 91%.
In the case of `N#C/C(=C1/Nc2ccccc2S1)c1ccnc(NCCc2cccnc2)n1`, the residual activity [1] was 97.6%.
`O=C1NC(=O)c2cc(Nc3ccc(F)cc3)c(Nc3ccc(F)cc3)cc21` gave a residual activity [1] of 90.7%.
Work on `O=C1Nc2ccc(Br)cc2/C1=C\c1cc2c([nH]1)CCCC2` yielded a residual activity [1] of 106%.
`Cc1cccc(-c2nc(C(C)(C)C)[nH]c2-c2ccc3c(c2)OCO3)n1` gave a residual activity [1] of 99.1%.
`Oc1cccc(-c2nc(N3CCOCC3)c3oc4ncccc4c3n2)c1` was tested, and the residual activity [1] was 92%.
`c1ccc2c(-c3ccncc3)c[nH]c2c1` showed a residual activity [1] of 97.7%.
`COC(=O)[C@]1(O)C[C@@H]2O[C@@]1(C)n1c3ccccc3c3c4c(c5c6ccccc6n2c5c31)C(=O)NC4` gave a residual activity (DYRK1B (human)) of 3.88%, a residual activity (LTK (human)) of 9.78% and a residual activity (PRKCH (human)) of 20.5%. The residual activity (STK33 (human)) was 12.5%.
Work on `CNC(=O)c1cc(Oc2ccc(NC(=O)Nc3ccc(Cl)c(C(F)(F)F)c3)cc2)ccn1` yielded a residual activity [1] of 7.04%.
With `CCN(CC)CCCCN1c2ccccc2Oc2ccc(Cl)cc21` the residual activity [1] was 103%.
In the case of `CCn1cnc2c(Nc3cccc(Cl)c3)nc(N[C@@H]3CCCC[C@@H]3N)nc21`, the residual activity [1] was 116%.
`Nc1cccc(-c2cc3c(Oc4cccc(O)c4)ncnc3[nH]2)c1` gave a residual activity [1] of 57.3%.
In the case of `Cc1ccc(NC2=CC(=O)c3sc(C)nc3C2=O)cc1`, the residual activity [1] was 127%.
With `CCC(=O)Nc1ccc2ncnc(Nc3cccc(Br)c3)c2c1` the residual activity [1] was 93.4%.
For `COc1ccc(Cl)cc1NC(=O)Nc1cc(C)nc2ccccc12`, the residual activity [1] was 92.4%.
With `Cn1cnc2cc3c(Nc4cccc(Br)c4)ncnc3cc21` the residual activity [1] was 119%.
In the case of `O=C(O)c1ccc2c3c1cccc3c(=O)n1c3ccccc3nc21`, the residual activity [1] was 101%.
In the case of `COc1cc2ncnc(Nc3cccc(Cl)c3)c2cc1OC`, the residual activity [1] was 108%.
For `c1ccc(-c2n[nH]cc2-c2ccnc3ccccc23)nc1`, the residual activity [1] was 91.5%.
`CN(C)C[C@H]1CCn2c(c(C3=C(c4cn(C)c5ccccc45)C(=O)NC3=O)c3ccccc32)C1` gave a residual activity [1] of 109%.
`O=C1NC(=O)C(c2c[nH]c3ccccc23)=C1c1c[nH]c2ccccc12` showed a residual activity [1] of 155%.
In the case of `C[C@@H]1CCN(C(=O)CC#N)C[C@@H]1N(C)c1ncnc2[nH]ccc12`, the residual activity [1] was 102%.
For `CCN(CC)CCNC(=O)c1c(C)[nH]c(/C=C2\C(=O)Nc3ccc(Cl)cc32)c1C`, the residual activity [1] was 132%.
For `Nc1ncnc2[nH]nc(Nc3ccc(F)cc3)c12`, the residual activity [1] was 80.7%.
For `O=C1Cc2c([nH]c3ccc(Br)cc23)-c2ccccc2N1`, the residual activity [1] was 104%.
For `FC(F)(F)c1ccc(/C=C/c2nc(COc3ccc(CCCCn4ccnn4)cc3)co2)cc1`, the residual activity [1] was 102%.
`CN(C)CCCn1cc(C2=C(c3c[nH]c4ccccc34)C(=O)NC2=O)c2ccccc21` was tested, and the residual activity [1] was 100%.
`O=C(CCCc1ccc(-c2ccccc2F)cc1)Nc1ccc(O)cc1` gave a residual activity [1] of 104%.
Work on `c1ccc(-c2n[nH]c3c2oc2ccccc23)cc1` yielded a residual activity [1] of 93.8%.
Work on `Nc1nnc2[nH]c3ccccc3nc1-2` yielded a residual activity [1] of 119%.
With `O=C1NC(=O)/C(=C/c2ccc3c(c2)OC(F)(F)O3)S1` the residual activity [1] was 104%.
In the case of `N#Cc1c[nH]c2c[nH]/c(=N\Cc3cccnc3)cc2/c1=N\c1ccc(F)c(Cl)c1`, the residual activity [1] was 106%.
